Reference: patent US7923471B2, “Method of treating dry eye disorders and uveitis” (Alcon, Inc., priority 2004, dated 2011)
Marks after values point to notes of the source that are not given here.

Assays:
[1] = test system: neutrophils; conditions: compared with lipoxin A4; cited from earlier work
[2] = test system: rabbit model of dry eye; experiment: Rabbit model of dry eye (lacrimal gland ConA injection followed by desiccation): corneal staining with methylene blue; assay type: in vivo, New Zealand white rabbits; conditions: 50 μl topical twice a day, ConA-injected rabbit eyes, 72 h desiccation
Protocol: Compound 1 was evaluated in a rabbit model of dry eye. New Zealand white rabbits (approximately 2.5 kg; obtained from Myrtle's Rabbitry, Thompson Station, Tenn.) were randomized and dosed topically twice a day with either 50 μl of compound 1 formulated in 0.064%/BSS® at concentrations of 1, 10, or 100 μM, or with 0.064%/BSS® vehicle. After 24 h the rabbits were anesthetized by subcutaneous administration of ketamine hydrochloride (30 mg/kg) and xylazine (6 mg/kg) and each rabbit received bilateral injections of Conconavilin A (ConA) (300 μg/30 μl) or saline (30 μl). Desiccation was initiated one day following lacrimal gland injection by placing conscious animals in an environmental chamber (20-30% humidity, […]). Following 72 hours of exposure to environment, the animals were assessed for corneal staining upon exposure of the cornea to the dye methylene blue; less staining indicates less damage to the cornea. The rabbits were anesthetized by subcutaneous administration of ketamine hydrochloride (30 mg/kg) and xylazine (6 mg/kg). Sutures were placed in each upper and lower eyelid and lifted to form a corneal/conjunctival cup. Methylene blue dye (1 mL, 1% in distilled water) was added to the cup for five minutes and the excess removed by washing with 200 mL of BSS®. The contralateral eye was then stained using the same procedure. Rabbits were euthanized immediately following the staining procedure and the eyes were excised. The corneas were isolated and a 9.5 mm punch of the cornea was placed overnight in 2 mL of acetone/saturated sodium sulfate (7:3 v/v). The concentration of the extracted dye was determined spectrophotometrically by measuring its absorbance at λ=660 nanometers (A660). Percent inhibition was calculated as {1−[(A660test item−A660Normal)/(A660BSS−A660Normal)]}×100, where A660test item is the absorbance of dye from ConA-injected eyes dosed with compound 1, A660Normal is the absorbance of dye from saline-injected eyes, and A660BSS is the absorbance of dye in ConA-injected eyes dosed with 0.064% ethanol/BSS® solution vehicle. A higher percent inhibition of staining indicates more protection of the cornea from damage.
(§1) The % inhibition of corneal staining and TBUT data are presented below in table 1, with 15S-HETE (Biomol Research Laboratories, Plymouth Meeting, Pa.) treatment of ConA-injected eyes used as a positive control.

[3] = test system: endotoxin-induced uveitis in rats; experiment: Endotoxin-induced uveitis in rats: ocular neutrophil (PMN) content by myeloperoxidase activity; assay type: in vivo, female Lewis rats; conditions: 24 h post endotoxin; for Myeloperoxidase (x ± standard deviation): 5 μL topical ocular at endotoxin injection and 4 h later, vehicle 164 ± 46
Protocol: Compound 1 was evaluated for its ability to suppress neutrophil influx into the rat eye in a model of endotoxin-induced uveitis. The compound was prepared at concentrations of 0.01%, 0.1%, 1.0% w/v in an ophthalmic suspension vehicle, and dexamethasone (Sigma-Aldrich Company, St. Louis, Mo.) formulated in the same vehicle served as reference compound. Uveitis was induced by subplantar injection of endotoxin (200 μg in 0.1 mL saline) in the right hind paw of female Lewis rats (5/group). Test compound of vehicle (5 μL) was administered topically to each eye of the experimental animals at the time of endoxtoxin injection and again 4 hours later. Twenty four hours post endotoxin injection, animals were sacrificed by CO2 inhalation, and total ocular neutrophil (PMN) content was assessed indirectly by determination of myeloperoxidase activity. Ocular PMN content in each group was then compared with that observed in the vehicle-treated group using Dunnet's t-test.

[4] = test system: rabbit model of dry eye; experiment: Rabbit model of dry eye (lacrimal gland ConA injection followed by desiccation): tear breakup time (TBUT); assay type: in vivo, New Zealand white rabbits; conditions: ConA-injected rabbit eyes, baseline = saline-injected, vehicle-treated eyes
Protocol: A second group of animals was evaluated for tear film quality by measuring each animal's tear breakup time (TBUT). Using the same experimental protocol as above for inducing rabbit ocular damage, TBUT was determined daily by instilling 5 μL of sodium fluorescein into the cul de sac and manually blinking the lids to distribute the fluroescein within the tear film. Under slit lamp observation, the eye was held open and the time whereby one or more black spots or streaks appeared in the precorneal tear film was recorded. The rabbits were euthanized 3 days following ConA injection. Larger TBUT values indicate better tear film quality and more protection from ocular damage. TBUT data is expressed as % of baseline, with baseline TBUT being that observed for saline-injected, vehicle-treated eyes.
as §1

Row | SMILES | inhibition of LTB4-induced chemotaxis of neutrophils [1] | % Inhibition of Corneal Staining, ±S.D. ([2]; 1 μM) | % inhibition (myeloperoxidase / ocular PMN content vs vehicle) ([3]; 0.1 % w/v topical ocular) | Myeloperoxidase (x ± standard deviation) ([3]; 0.1 % w/v) [μM/min/100 mg] | TBUT, % of Baseline, ±S.D. ([4]; 1 μM topical twice a day) | further results
1 | COC(=O)CCC[C@H](O)[C@H](O)CO [Compound 1] | as potently as lipoxin A4 | 75 ± 12^b % | 2% | 161 ± 37 | 67 ± 17^b % of Baseline | % Inhibition of Corneal Staining, ±S.D. ([2]; 10 μM): 54 ± 9^b,c %; % Inhibition of Corneal Staining, ±S.D. ([2]; 100 μM): 38 ± 34^b,c %; % inhibition (myeloperoxidase / ocular PMN content vs vehicle) ([3]; 0.01 % w/v topical ocular): 13%; Myeloperoxidase (x ± standard deviation) ([3]; 0.01 % w/v): 143 ± 64 μM/min/100 mg; % inhibition (myeloperoxidase / ocular PMN content vs vehicle) ([3]; 1.0 % w/v topical ocular): 41* %; Myeloperoxidase (x ± standard deviation) ([3]; 1.0 % w/v): 97 ± 35 μM/min/100 mg; TBUT, % of Baseline, ±S.D. ([4]; 10 μM topical twice a day): 45 ± 17^b % of Baseline; TBUT, % of Baseline, ±S.D. ([4]; 100 μM topical twice a day): 51 ± 18^b % of Baseline
2 | CCCCC[C@H](O)[C@H](O)CO [Compound 2] | as potently as lipoxin A4 | – | – | – | – | –
3 | CCCCC[C@H](O)/C=C/C=C\C/C=C\C/C=C\CCCC(=O)O [Compound 15S-HETE, 15S-HETE, reference compound] | – | 77 ± 18^b % | – | – | 54 ± 21^b % of Baseline | –
4 | C[C@@H]1C[C@H]2[C@@H]3CCC4=CC(=O)C=C[C@]4(C)[C@@]3(F)[C@@H](O)C[C@]2(C)[C@@]1(O)C(=O)CO [Dexamethasone, dexamethasone, reference compound] | – | – | 91* % | 15 ± 7 | – | –
